# Target: T1, hGPR120 (Homo sapiens, UniProt Q5NUL3)
# T1 construct: expressed in transfected cells; host or cells: CHO-K1
# T1 sequence (Q5NUL3 1-361): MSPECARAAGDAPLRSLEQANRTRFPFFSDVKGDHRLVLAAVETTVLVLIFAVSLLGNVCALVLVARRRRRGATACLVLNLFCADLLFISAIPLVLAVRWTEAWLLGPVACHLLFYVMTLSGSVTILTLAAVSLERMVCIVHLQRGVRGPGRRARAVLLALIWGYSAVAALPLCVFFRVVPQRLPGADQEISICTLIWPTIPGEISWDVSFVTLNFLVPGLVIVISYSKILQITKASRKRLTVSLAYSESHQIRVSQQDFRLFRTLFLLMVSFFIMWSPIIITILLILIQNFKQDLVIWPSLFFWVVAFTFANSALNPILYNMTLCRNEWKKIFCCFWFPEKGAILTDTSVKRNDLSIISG
# Assay: Measurement of activity of GPR120 agonist (cell-based assay), calcium fluorescence
# Conditions: CHO-K1 cells expressing Ga16 and hGPR120; Calcium 5 dye fluorescence; activity class
# Description: CHO-K1 cells expressing Ga16 and hGPR120 were dispensed into each well of a 96-well plate (3×10^4 cells/100 μl/well) and then incubated in 5% CO2, 37° C. incubator for 18 hours. Each well was treated with 100 μl of Calcium 5 dye (Molecular Devices) solution including 2% DMSO and then incubated in 5% CO2, 37° C. incubator for 1 hour. Serially diluted GPR120 agonists were prepared to a final concentration of 0.5% DMSO in a 96-well plate. Each well was treated with 50 μl of the agonist compounds using Plexstation II, and then fluorescence was measured at Ex 485 nm, Em 525 nm.
# Fluorescence increased by the serially diluted GPR120 agonists is calculated as a relative percent (%) value based on the fluorescence represented by the treatment of 0.1% DMSO only. […] The calculation of measurement was carried out by using statistical software (Prizm).
# Activity is denoted based on the following criteria: A=>20 μM, B=[…], C=2˜0.2 μM, D=<0.2 μM
row,EC50 [nM],Compound
1,< 200,"CCCSc1ncccc1COc1ccc(C2CC2C(=O)O)cc1F (single isomer, unassigned) [Example 119, 2-[3-fluoro-4-(2-propylsulfanyl-pyridin-3-ylmethoxy)-phenyl]-cyclopropane carboxylic acid]"
2,200 to 2000,"O=C(O)C1CC1c1ccc(OCc2cccnc2SC2CCC2)c(Cl)c1 (single isomer, unassigned) [Example 124, 2-[3-chloro-4-(2-cyclobutylsulfanyl-pyridin-3-ylmethoxy)-phenyl]-cyclopropane carboxylic acid]"
3,< 200,"O=C(O)C1CC1c1ccc(OCc2cccnc2SC2CCC2)c(Cl)c1 (single isomer, unassigned) [Example 125, 2-[3-chloro-4-(2-cyclobutylsulfanyl-pyridin-3-ylmethoxy)-phenyl]-cyclopropane carboxylic acid]"
4,200 to 2000,"O=C(O)C1CC1c1ccc(OCc2cccnc2SCC2CC2)c(F)c1 (single isomer, unassigned) [Example 129, 2-[4-(2-cyclopropylmethylsulfanyl-pyridin-3-ylmethoxy)-3-fluoro-phenyl]-cyclopropane carboxylic acid]"
5,200 to 2000,"O=C(O)C1CC1c1ccc(OCc2cccnc2SC2CCCC2)c(F)c1 (single isomer, unassigned) [Example 130, 2-[4-(2-cyclopentylsulfanyl-pyridin-3-ylmethoxy)-3-fluoro-phenyl]-cyclopropane carboxylic acid]"
6,200 to 2000,"CC(C)Sc1cccc(COc2ccc(C3CC3C(=O)O)cc2F)n1 (single isomer, unassigned) [Example 131, 2-[3-fluoro-4-(6-isopropylsulfanyl-pyridin-2-ylmethoxy)-phenyl]-cyclopropane carboxylic acid]"
7,200 to 2000,"O=C(O)C1CC1c1ccc(OCc2cccnc2SC2CCC2)c(F)c1 (single isomer, unassigned) [Example 133, 2-[4-(2-cyclobutylsulfanyl-pyridin-3-ylmethoxy)-3-fluoro-phenyl]-cyclopropane carboxylic acid]"
8,< 200,"O=C(O)C1CC1c1ccc(OCc2cccc(SC3CCCC3)n2)c(F)c1 (single isomer, unassigned) [Example 134, 2-[4-(6-cyclopentylsulfanyl-pyridin-2-ylmethoxy)-3-fluoro-phenyl]-cyclopropane carboxylic acid]"
9,200 to 2000,"O=C(O)C1CC1c1cc(F)c(OCc2cccnc2SCC2CC2)c(F)c1 (single isomer, unassigned) [Example 136, 2-[4-(2-cyclopropylmethylsulfanyl-pyridin-3-ylmethoxy)-3,5-difluoro-phenyl]-cyclopropane carboxylic acid]"
10,< 200,"O=C(O)C1CC1c1cc(F)c(OCc2cccnc2SCC2CC2)c(F)c1 (single isomer, unassigned) [Example 137, 2-[4-(2-cyclopropylmethylsulfanyl-pyridin-3-ylmethoxy)-3,5-difluoro-phenyl]-cyclopropane carboxylic acid]"
11,< 200,"CCCSc1ncccc1COc1ccc(C2CC2C(=O)O)cc1F (single isomer, unassigned) [Example 163, 2-[3-fluoro-4-(2-propylsulfanyl-pyridin-3-ylmethoxy)-phenyl]-cyclopropane carboxylic acid]"
12,< 200,"O=C(O)C1CC1c1ccc(OCc2cccnc2SC2CCCC2)c(F)c1 (single isomer, unassigned) [Example 164, 2-[4-(2-cyclopentylsulfanyl-pyridin-3-ylmethoxy)-3-fluoro-phenyl]-cyclopropane carboxylic acid]"
13,< 200,"O=C(O)C1CC1c1ccc(OCc2cccnc2SCC2CC2)c(F)c1 (single isomer, unassigned) [Example 165, 2-[4-(2-cyclopropylmethylsulfanyl-pyridin-3-ylmethoxy)-3-fluoro-phenyl]-cyclopropane carboxylic acid]"
14,< 200,"CC(C)Sc1cccc(COc2ccc(C3CC3C(=O)O)cc2F)n1 (single isomer, unassigned) [Example 166, 2-[3-fluoro-4-(6-isopropylsulfanyl-pyridin-2-ylmethoxy)-phenyl]-cyclopropane carboxylic acid]"
15,< 200,"O=C(O)C1CC1c1ccc(OCc2cccc(SC3CCCC3)n2)c(F)c1 (single isomer, unassigned) [Example 168, 2-[4-(6-cyclopentylsulfanyl-pyridin-2-ylmethoxy)-3-fluoro-phenyl]-cyclopropane carboxylic acid]"
16,< 200,"O=C(O)C1CC1c1ccc(OCc2cccnc2SC2CCC2)c(F)c1 (single isomer, unassigned) [Example 169, 2-[4-(2-cyclobutylsulfanyl-pyridin-3-ylmethoxy)-3-fluoro-phenyl]-cyclopropane carboxylic acid]"

row,EC50 [nM],Compound
1,< 200,"CC(C)Sc1ncccc1COc1c(F)cc(CCC(=O)O)cc1F [Example 1, 3-[3,5-difluoro-4-(2-isopropylsulfanyl-pyridin-3-ylmethoxy)-phenyl]-propionic acid]"
2,< 200,"CC(C)Sc1ncccc1COc1ccc(CCC(=O)O)cc1 [Example 2, 3-[4-(2-isopropylsulfanyl-pyridin-3-ylmethoxy)-phenyl]-propionic acid]"
3,200 to 2000,"Cc1cnc(SC(C)C)c(COc2ccc(CC(C)C(=O)O)cc2)c1 (stereo not shown) [Example 3, 3-[4-(2-isopropylsulfanyl-5-methyl-pyridin-3-ylmethoxy)-phenyl]-2-methyl-propionic acid]"
4,200 to 2000,"CC(C)Sc1ncccc1COc1ccc(CC(C)C(=O)O)cc1 (stereo not shown) [Example 4, 3-[4-(2-isopropylsulfanyl-pyridin-3-ylmethoxy)-phenyl]-2-methyl-propionic acid]"
5,< 200,"Cc1cnc(SC(C)C)c(COc2ccc(CCC(=O)O)cc2)c1 [Example 5, 3-[4-(2-isopropylsulfanyl-5-methyl-pyridin-3-ylmethoxy)-phenyl]-propionic acid]"
6,< 200,"CC(C)Sc1ncccc1COc1ccc(CCC(=O)O)cc1F [Example 6, 3-[3-fluoro-4-(2-isopropylsulfanyl-pyridin-3-ylmethoxy)-phenyl]-propionic acid]"
7,< 200,"CC(C)Sc1ncccc1COc1ccc(CCC(=O)O)c(F)c1 [Example 7, 3-[2-fluoro-4-(2-isopropylsulfanyl-pyridin-3-ylmethoxy)-phenyl]-propionic acid]"
8,< 200,"Cc1ccc(COc2c(F)cc(CCC(=O)O)cc2F)c(SC(C)C)n1 [Example 9, 3-[3,5-difluoro-4-(2-isopropylsulfanyl-6-methyl-pyridin-3-ylmethoxy)-phenyl]-propionic acid]"
9,< 200,"CCSc1ncccc1COc1c(F)cc(CCC(=O)O)cc1F [Example 10, 3-[4-(2-ethylsulfanyl-pyridin-3-ylmethoxy)-3,5-difluoro-phenyl]-propionic acid]"
10,< 200,"CC(C)CSc1ncccc1COc1c(F)cc(CCC(=O)O)cc1F [Example 11, 3-[3,5-difluoro-4-(2-isobutylsulfanyl-pyridin-3-ylmethoxy)-phenyl]-propionic acid]"
11,< 200,"CC(C)Sc1ncccc1COc1ccc(CCCC(=O)O)cc1 [Example 13, 4-[4-(2-isopropylsulfanyl-pyridin-3-ylmethoxy)-phenyl]-butyric acid]"
12,< 200,"CCCSc1ncccc1COc1c(F)cc(CCC(=O)O)cc1F [Example 14, 3-[3,5-difluoro-4-(2-propylsulfanyl-pyridin-3-ylmethoxy)-phenyl]-propionic acid]"
13,200 to 2000,"O=C(O)CCc1cc(F)c(OCc2cccnc2Sc2ccccc2)c(F)c1 [Example 15, 3-[3,5-difluoro-4-(2-phenylsulfanyl-pyridin-3-ylmethoxy)-phenyl]-propionic acid]"
14,< 200,"CC(C)(C)Sc1ncccc1COc1c(F)cc(CCC(=O)O)cc1F [Example 16, 3-[4-(2-t-butylsulfanyl-pyridin-3-ylmethoxy)-3,5-difluoro-phenyl]-propionic acid]"
15,< 200,"O=C(O)CCc1cc(F)c(OCc2cccnc2SCC2CC2)c(F)c1 [Example 17, 3-[4-(2-cyclopropylmethylsulfanyl-pyridin-3-ylmethoxy)-3,5-difluoro-phenyl]-propionic acid]"

# Same assay, conditions: CHO-K1 cells expressing Ga16 and hGPR120; Calcium 5 dye fluorescence; numeric value
row,EC50 [nM],Compound
1,27,"O=C(O)C1CC1c1ccc(OCc2cccc(SC3CCC3)n2)c(F)c1 (single isomer, unassigned) [Example 135, 2-[4-(6-cyclobutylsulfanyl-pyridin-2-ylmethoxy)-3-fluoro-phenyl]-cyclopropane carboxylic acid]"
2,6,"O=C(O)C1CC1c1ccc(OCc2cccc(SC3CCC3)n2)c(F)c1 (single isomer, unassigned) [Example 167, 2-[4-(6-cyclobutylsulfanyl-pyridin-2-ylmethoxy)-3-fluoro-phenyl]-cyclopropane carboxylic acid]"
3,58,"O=C(O)CCc1cc(F)c(OCc2cccnc2SC2CCCC2)c(F)c1 [Example 12, 3-[4-(2-cyclopentylsulfanyl-pyridin-3-ylmethoxy)-3,5-difluoro-phenyl]-propionic acid]"
